# Test results as given in US11298361B2, “Fused benzazepines for treatment of Tourette's Syndrome” (EMALEX BIOSCIENCES, INC., priority 2012, dated 2022).
# Like-named read-outs stand apart in the source and are kept apart here.
# Legend:
# [1] = biological target: D1/D5 receptor (^3H-23390); conditions: radioligand ^3H-23390; cited from earlier work
# [2] = test system: CAR; conditions: cited from earlier work
# [3] = biological target: D2 receptor (^3H-Spip) (Homo sapiens, UniProt P14416)
# [4] = test system: adenosine, benzodiazepine, glutamate/AMPA/kainate, GABA, muscarinic, nicotinic, opiate, alpha- or beta-adrenergic sites; test: Binding at other receptor sites
# [5] = test system: D1 receptors; test: In vitro studies on cAMP second messenger (adenylate cyclase); format: biochemical
# Protocol: (§1) Activation of D1 receptors by dopamine and similar agonists stimulates the production of cyclic AMP (cAMP) via activation of adenylate cyclase. […] To ensure that there was no species specificity to the receptor binding profile, ecopipam's potency and selectivity were evaluated using cloned human receptors. […] Positron emission tomography (PET) studies using radiolabeled ecopipam have been conducted in healthy volunteers (Karlsson et al., Psychopharmacol. 121:300-308, 1995).
# [6] = test system: hD1/hD5 receptors; test: Binding to cloned human receptors
# Protocol: as §1
# [7] = test system: adult patients with Tourette's Syndrome; test: Open-label clinical study in adult patients with Tourette's Syndrome; format: in vivo, human
# Protocol: A clinical program was carried out to test the safety, tolerability, and activity of ecopipam in adult patients with Tourette's Syndrome. A multicenter, open-label, nonrandomized study in 25 to 30 subjects was conducted to assess the activity and safety of ecopipam in subjects with TS. […] Assessment was performed at each visit. A follow-up visit was conducted via telephone at Week 10 to record any adverse events. Ecopipam was administered daily before bedtime at 50 mg/day for Week 1 and Week 2 and at 100 mg/day for Weeks 3-8. This treatment regimen is within the scope of the present invention; the compositions and various formulations described herein can be administered as described in this Example. The activity of ecopipam was measured using the following clinical rating scales: (1) Yale Global Tic Severity Scale (YGTSS; data based on this scoring system are presented below); (2) ADHD self-report symptom checklist (ASRS); (3)Yale-Brown Obsessive Compulsive Scale (YBOCS); (4) Premonitory Urge for […]; and (6) Clinical Global Impression Improvement and Severity Scales (CGI). The demographics of the study population were as follows: eighty three percent of the subjects were male (15 out of 18); fifteen were Caucasian, two were African-American, and one was an Asian/Pacific Islander. […] Four patients reported AEs that were rated as severe and included the following: sedation, insomnia, decreased appetite, hypersensitivity, cold sweat, and feeling jittery. The following AEs were rated mild to moderate and were reported in more than three subjects: fatigue, insomnia, nausea, sedation, headache, restlessness, anxiety, muscle twitching, dysphoria, and sleeplessness. These side effects are similar to those seen in other studies with ecopipam and were not unexpected.
# [8] = test system: D1/D5 receptors; conditions: rat brain homogenates, low concentrations; cited from earlier work
# [9] = test system: D1 receptor; conditions: rats, D1-agonist discriminative stimulus; cited from earlier work
# [10] = biological target: dopamine D1 receptors in human brain (Homo sapiens, UniProt P21728); conditions: radiolabeled ecopipam, healthy volunteers; cited from earlier work
# [11] = radioligand ^3H-Spip; read-out: Ki (nM) ^3H-Spip; cited from earlier work
# D2 receptor (^3H-Spip), sequence (P14416 whole entry): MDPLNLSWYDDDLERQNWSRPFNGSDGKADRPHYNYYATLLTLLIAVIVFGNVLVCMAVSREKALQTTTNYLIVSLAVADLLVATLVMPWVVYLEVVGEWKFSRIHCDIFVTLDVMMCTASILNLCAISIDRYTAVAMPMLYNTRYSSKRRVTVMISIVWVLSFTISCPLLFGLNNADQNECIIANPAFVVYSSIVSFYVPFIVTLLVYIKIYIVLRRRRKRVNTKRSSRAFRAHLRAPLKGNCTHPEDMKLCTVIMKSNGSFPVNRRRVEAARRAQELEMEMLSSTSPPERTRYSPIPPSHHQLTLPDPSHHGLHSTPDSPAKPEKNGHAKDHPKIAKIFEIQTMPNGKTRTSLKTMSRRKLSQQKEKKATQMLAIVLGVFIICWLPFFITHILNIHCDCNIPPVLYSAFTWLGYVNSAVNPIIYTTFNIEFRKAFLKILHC
# dopamine D1 receptors in human brain, sequence (P21728 whole entry): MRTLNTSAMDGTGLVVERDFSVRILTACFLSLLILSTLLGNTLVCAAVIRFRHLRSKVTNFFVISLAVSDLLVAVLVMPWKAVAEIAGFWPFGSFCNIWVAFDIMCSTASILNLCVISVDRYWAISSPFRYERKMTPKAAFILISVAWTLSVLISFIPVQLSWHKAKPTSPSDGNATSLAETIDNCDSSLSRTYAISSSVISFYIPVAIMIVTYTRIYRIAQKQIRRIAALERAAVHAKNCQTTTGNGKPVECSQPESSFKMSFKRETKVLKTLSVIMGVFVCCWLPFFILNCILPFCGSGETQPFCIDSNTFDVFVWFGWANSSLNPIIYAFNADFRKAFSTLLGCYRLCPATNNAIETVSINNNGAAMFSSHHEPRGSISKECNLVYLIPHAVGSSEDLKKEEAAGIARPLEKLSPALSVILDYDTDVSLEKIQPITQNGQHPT
smiles,measurement,setting,value
"CN1CCc2cc(Cl)c(O)cc2C2c3ccccc3CC21 (stereo not drawn) [Q=CH2, n=0, trans, X=Cl, Y=OH]",Ki,[1],10 nM
"CN1CCc2cc(Cl)c(O)cc2[C@@H]2c3ccccc3CC[C@H]21 [Q=CH2, n=1, 7b(S):7a(R)(+), X=Cl, Y=OH]","CAR (MED), po",[2],>30 (po)
"COc1cc2c(cc1O)C1c3ccccc3CCC1N(C)CC2 (stereo not drawn) [Q=CH2, n=1, cis, X=CH3O, Y=OH]",Ki,[1],6450 nM
same,Ki,[3]; read-out: Ki (nM) ^3H-Spip; radioligand ^3H-Spip; cited from earlier work,> 100000 nM
"CN1CCc2ccc(O)cc2C2c3ccccc3CCC21 (stereo not drawn) [Q=CH2, n=1, trans, X=H, Y=OH]",Ki,[1],80 nM
"CN1CCc2ccc(O)cc2C2c3ccccc3OCC21 (stereo not drawn) [Q=O, n=1, trans, X=H, Y=OH]",Ki,[1],121 nM
"CN1CCc2cc(Cl)c(N)cc2C2c3ccccc3CCC21 (stereo not drawn) [Q=CH2, n=1, trans, X=Cl, Y=NH2]",Ki,[1],70 nM
same,"CAR (MED), po",[2],3 (po)
"CN1CCc2cc(Cl)c(O)cc2[C@H]2c3ccccc3CC[C@@H]21 [Q=CH2, n=1, 7b(R):7a(S)(−), X=Cl, Y=OH]","CAR (MED), po",[2],30 (po)
"COc1cc2c(cc1O)C1c3ccccc3CCCC1N(C)CC2 (stereo not drawn) [Q=CH2, n=2, trans, X=CH3O, Y=OH]",Ki,[1],292 nM
same,Ki,[3]; [11],> 100000 nM
same,"CAR (MED), sc",[2],10 (sc)
"COc1cc2c(cc1O)C1c3ccccc3CCC1N(C)CC2 (stereo not drawn) [Q=CH2, n=1, trans, X=CH3O, Y=OH]",Ki,[1],23 nM
same,"CAR (MED), po",[2],30 mg/kg
same,"CAR (MED), sc",[2]; in mg/kg (unit assumed),0.3-1
"CN1CCc2cc(Cl)c(O)cc2C2c3ccccc3CCC21 (stereo not drawn) [Q=CH2, n=1, trans, X=Cl, Y=OH]","CAR (MED), po",[2],30 mg/kg
same,"CAR (MED), sc",[2]; in mg/kg (unit assumed),0.3
"Cc1cc2c(cc1O)C1c3ccccc3CCC1N(C)CC2 (stereo not drawn) [Q=CH2, n=1, trans, X=CH3, Y=OH]",Ki,[1],119 nM
"COc1cc2c(cc1O)CCN(C)C1CCCc3ccccc3C21 (stereo not drawn) [Q=CH2, n=2, trans, X=HO, Y=CH3O]",Ki,[1],7730 nM
same,Ki,[3]; [11],> 100000 nM
same,"CAR (MED), sc",[2],10 (sc)
"CN1CCc2cc(Cl)c(O)cc2[C@H]2c3ccccc3CC[C@@H]21 [ecopipam, (−)-trans-6,7,7a,8,9,13b-hexahydro-3-chloro-2-hydroxy-N-methyl-5H-benzo [d]-naphtho-[2,1-b]azepine]",Concentration multiple at which it did not bind to other sites,[4],> 700 fold
same,Functional action on cAMP second messenger,[5],antagonist
same,Affinity for hD1/hD5 receptors,[6],high affinity
same,Patients with at least one grade change in CGI-S score,"[7]; 9 of the 15 patients, p≤0.01 Student's t test",60%
same,Subjects reporting adverse events,[7]; 18 subjects,All subjects reported at least one adverse event
same,"Change in YGTSS scores, intent to treat analysis",[7]; entire population n=18,statistically significant changes were evident
same,"Change in YGTSS scores (motor, phonic, total severity), baseline to last visit","[7]; fifteen patients who completed the trial, 50 mg/day Weeks 1-2, 100 mg/day Weeks 3-8",highly statistically significant (Paired t-Test p<0.001) reduction
same,Changes in lab tests,"[7]; human, in vivo",none were of clinical significance
same,Changes in vital signs,"[7]; human, in vivo",no clinically significant changes in vital signs
same,Serious adverse events,[7]; requiring medical intervention,no serious adverse events
same,Patients reporting AEs rated as severe,"[7]; sedation, insomnia, decreased appetite, hypersensitivity, cold sweat, feeling jittery",Four
same,Affinity for D1/D5 receptors,[8],high affinity
same,Action on dopamine-agonist-induced behaviors,[9],selective D1 antagonist
same,PET binding in the human brain,[10],specific binding in the human brain
